{
  "source": "ChEMBL document CHEMBL4373740",
  "about": "“Synthesis and biological evaluation of new MET inhibitors with 1,6-naphthyridinone scaffold” (Eur J Med Chem, 2020)",
  "key": {"[1]": {"assay": "Tmax in Sprague-Dawley rat at 5.0 mg/kg, ig measured for 15 min to 72 hrs by LC-MS/MS analysis", "assay_type": "ADME, organism-based", "settings": "in vivo, po"}, "[2]": {"assay": "Cmax in Sprague-Dawley rat at 1.0 mg/kg, iv measured for 5 min to 72 hrs by LC-MS/MS analysis", "assay_type": "ADME, organism-based", "parameters": "dose 1 mg/kg, route intravenous", "settings": "in vivo"}, "[3]": {"assay": "AUC (0 to infinity) in Sprague-Dawley rat at 5.0 mg/kg, ig measured for 15 min to 72 hrs by LC-MS/MS analysis", "assay_type": "ADME, organism-based", "parameters": "dose 5 mg/kg, time infinity, route intragastric", "settings": "in vivo, po"}, "[4]": {"assay": "Clearance in Sprague-Dawley rat at 5.0 mg/kg, ig measured for 15 min to 72 hrs by LC-MS/MS analysis", "assay_type": "ADME, organism-based", "settings": "in vivo, po"}, "[5]": {"molecular_target": "Serine/threonine-protein kinase B-raf (Homo sapiens) (UniProt P15056)", "sequence (P15056 whole entry)": "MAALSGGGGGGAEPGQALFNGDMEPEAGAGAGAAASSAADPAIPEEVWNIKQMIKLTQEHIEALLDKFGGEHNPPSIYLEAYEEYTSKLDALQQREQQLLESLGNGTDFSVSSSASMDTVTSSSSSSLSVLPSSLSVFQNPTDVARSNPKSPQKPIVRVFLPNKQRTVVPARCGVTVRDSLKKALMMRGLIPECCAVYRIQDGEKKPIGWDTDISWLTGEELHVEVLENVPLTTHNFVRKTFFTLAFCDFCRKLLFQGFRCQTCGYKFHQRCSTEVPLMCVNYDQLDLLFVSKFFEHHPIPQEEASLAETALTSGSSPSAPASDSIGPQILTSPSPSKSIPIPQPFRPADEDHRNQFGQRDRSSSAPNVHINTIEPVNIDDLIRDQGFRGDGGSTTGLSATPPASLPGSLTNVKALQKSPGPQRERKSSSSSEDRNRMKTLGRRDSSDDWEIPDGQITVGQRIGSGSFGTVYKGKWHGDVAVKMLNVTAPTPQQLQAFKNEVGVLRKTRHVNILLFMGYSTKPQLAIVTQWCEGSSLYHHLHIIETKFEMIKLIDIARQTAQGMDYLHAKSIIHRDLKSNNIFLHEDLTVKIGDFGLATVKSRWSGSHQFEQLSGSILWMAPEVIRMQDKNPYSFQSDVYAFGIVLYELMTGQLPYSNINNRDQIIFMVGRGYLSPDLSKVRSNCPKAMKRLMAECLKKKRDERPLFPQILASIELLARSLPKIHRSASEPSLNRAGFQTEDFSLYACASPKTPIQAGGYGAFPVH", "assay": "Inhibition of recombinant full length human GST-tagged BRAF expressed in baculovirus expression system at 1 uM using biotin as substrate preincubated for 5 mins followed by substrate addition and measured after 30 to 60 mins in presence of ATP by HTRF assay relative to control"}, "[6]": {"molecular_target": "CDK2/Cyclin A2 (Homo sapiens) (UniProt P24941+P20248)", "assay": "Inhibition of recombinant full length human His-tagged CDK2/Cyclin A expressed in baculovirus expression system at 1 uM using biotin as substrate preincubated for 5 mins followed by substrate addition and measured after 30 to 60 mins in presence of ATP by HTRF assay relative to control"}, "[7]": {"molecular_target": "Tyrosine-protein kinase Fes/Fps (Homo sapiens) (UniProt P07332)", "sequence (P07332 whole entry)": "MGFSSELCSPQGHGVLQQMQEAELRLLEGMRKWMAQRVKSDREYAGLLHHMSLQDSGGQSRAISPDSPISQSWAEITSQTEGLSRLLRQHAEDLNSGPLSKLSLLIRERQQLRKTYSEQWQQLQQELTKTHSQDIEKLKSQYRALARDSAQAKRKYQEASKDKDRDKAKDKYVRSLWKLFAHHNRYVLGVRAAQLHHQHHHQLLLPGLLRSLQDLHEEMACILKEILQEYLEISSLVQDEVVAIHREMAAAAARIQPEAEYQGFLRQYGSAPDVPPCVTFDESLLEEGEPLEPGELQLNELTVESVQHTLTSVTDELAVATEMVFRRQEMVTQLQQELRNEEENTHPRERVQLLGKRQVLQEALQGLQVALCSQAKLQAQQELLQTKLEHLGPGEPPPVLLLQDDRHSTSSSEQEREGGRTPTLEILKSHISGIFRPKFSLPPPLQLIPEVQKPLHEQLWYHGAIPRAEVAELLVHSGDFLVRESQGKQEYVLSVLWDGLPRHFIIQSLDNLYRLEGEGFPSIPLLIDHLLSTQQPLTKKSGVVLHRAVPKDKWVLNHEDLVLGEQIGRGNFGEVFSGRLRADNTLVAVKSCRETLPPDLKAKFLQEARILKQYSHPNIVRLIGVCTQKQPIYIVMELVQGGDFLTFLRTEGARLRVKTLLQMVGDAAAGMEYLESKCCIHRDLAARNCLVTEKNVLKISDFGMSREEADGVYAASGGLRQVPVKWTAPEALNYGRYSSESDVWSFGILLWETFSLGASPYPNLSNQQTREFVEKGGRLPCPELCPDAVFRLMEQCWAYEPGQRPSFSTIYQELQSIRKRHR", "assay": "Inhibition of recombinant human His-tagged FES expressed in baculovirus system at 1 uM using biotin as substrate preincubated for 5 mins followed by substrate addition and measured after 30 to 60 mins in presence of ATP by HTRF assay relative to control"}, "[8]": {"molecular_target": "Insulin-like growth factor 1 receptor (Homo sapiens) (UniProt P08069)", "sequence (P08069 31-736 limits assumed)": "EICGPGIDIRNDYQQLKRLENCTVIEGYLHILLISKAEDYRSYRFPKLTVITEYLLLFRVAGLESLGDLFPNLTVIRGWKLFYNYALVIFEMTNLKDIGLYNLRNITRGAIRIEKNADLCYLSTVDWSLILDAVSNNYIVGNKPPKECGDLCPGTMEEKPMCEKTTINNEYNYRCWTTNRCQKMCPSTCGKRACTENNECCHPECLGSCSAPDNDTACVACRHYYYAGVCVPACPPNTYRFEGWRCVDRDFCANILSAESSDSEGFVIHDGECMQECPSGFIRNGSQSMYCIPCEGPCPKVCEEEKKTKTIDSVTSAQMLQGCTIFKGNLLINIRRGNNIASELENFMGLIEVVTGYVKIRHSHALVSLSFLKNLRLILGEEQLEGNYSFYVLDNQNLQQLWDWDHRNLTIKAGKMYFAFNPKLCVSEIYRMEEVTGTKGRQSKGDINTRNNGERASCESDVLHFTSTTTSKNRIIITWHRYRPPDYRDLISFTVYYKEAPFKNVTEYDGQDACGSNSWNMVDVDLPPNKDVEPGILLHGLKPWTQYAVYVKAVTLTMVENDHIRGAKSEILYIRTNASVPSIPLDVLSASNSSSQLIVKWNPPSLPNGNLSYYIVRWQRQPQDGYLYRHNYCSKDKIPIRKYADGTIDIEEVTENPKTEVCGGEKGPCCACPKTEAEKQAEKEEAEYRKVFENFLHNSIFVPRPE", "sequence (P08069 741-1367 limits assumed)": "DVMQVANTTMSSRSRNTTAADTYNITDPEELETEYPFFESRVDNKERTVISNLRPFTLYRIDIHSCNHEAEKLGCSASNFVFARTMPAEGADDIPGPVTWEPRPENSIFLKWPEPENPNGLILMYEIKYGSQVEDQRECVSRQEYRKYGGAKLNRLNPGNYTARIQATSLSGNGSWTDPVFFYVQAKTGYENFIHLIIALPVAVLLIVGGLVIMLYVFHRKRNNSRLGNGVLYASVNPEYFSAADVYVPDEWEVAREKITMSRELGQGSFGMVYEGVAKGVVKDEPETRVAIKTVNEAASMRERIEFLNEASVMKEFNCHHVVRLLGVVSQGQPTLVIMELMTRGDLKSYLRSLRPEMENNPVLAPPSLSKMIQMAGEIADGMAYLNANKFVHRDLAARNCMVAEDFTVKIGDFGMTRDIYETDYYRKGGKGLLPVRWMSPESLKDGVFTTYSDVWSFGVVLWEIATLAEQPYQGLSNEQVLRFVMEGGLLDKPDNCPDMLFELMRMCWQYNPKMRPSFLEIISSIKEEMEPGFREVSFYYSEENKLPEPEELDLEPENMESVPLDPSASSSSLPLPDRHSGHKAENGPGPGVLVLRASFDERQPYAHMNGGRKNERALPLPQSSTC", "assay": "Inhibition of recombinant full length human His-tagged IGF1R expressed in baculovirus expression system at 1 uM using biotin as substrate preincubated for 5 mins followed by substrate addition and measured after 30 to 60 mins in presence of ATP by HTRF assay relative to control"}, "[9]": {"molecular_target": "Tyrosine-protein kinase Lyn (Homo sapiens) (UniProt P07948)", "sequence (P07948 2-512 limits assumed)": "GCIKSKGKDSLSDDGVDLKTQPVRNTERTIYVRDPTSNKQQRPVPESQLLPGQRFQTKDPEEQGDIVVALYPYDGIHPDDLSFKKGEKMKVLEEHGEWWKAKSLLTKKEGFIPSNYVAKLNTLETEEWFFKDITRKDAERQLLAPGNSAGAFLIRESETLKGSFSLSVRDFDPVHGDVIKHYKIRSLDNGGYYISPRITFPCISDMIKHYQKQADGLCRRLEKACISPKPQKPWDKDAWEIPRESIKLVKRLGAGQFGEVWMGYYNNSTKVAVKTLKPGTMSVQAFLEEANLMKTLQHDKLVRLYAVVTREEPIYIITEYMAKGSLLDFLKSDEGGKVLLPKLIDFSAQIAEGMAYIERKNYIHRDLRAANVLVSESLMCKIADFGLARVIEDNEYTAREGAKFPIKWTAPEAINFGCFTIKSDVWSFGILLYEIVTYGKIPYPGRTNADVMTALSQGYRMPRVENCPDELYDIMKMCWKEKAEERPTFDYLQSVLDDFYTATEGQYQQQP", "assay": "Inhibition of recombinant human N-terminal GST-tagged LYN A expressed in insect cells at 1 uM using biotin as substrate preincubated for 5 mins followed by substrate addition and measured after 30 to 60 mins in presence of ATP by HTRF assay relative to control"}},
  "data": [
    {"smiles": "Cn1cc(-c2ccc(F)cc2)c(=O)c2c(Nc3ccc(Oc4ccnc(NC(=O)C5CC5)c4)c(F)c3)nccc21", "values": [
      {"measurement": "Tmax", "setting": "[1]", "result": 8.7, "unit": "h"},
      {"measurement": "Cmax", "setting": "[2]", "result": 6500, "unit": "ng/mL"},
      {"measurement": "AUC(0-inf)", "setting": "[3]", "result": 233, "unit": "µg·h/mL"},
      {"measurement": "CL/F", "setting": "[4]", "result": 0.333, "unit": "mL/min/kg"},
      {"measurement": "inhibition", "setting": "[5]", "result": "< 50", "unit": "%"},
      {"measurement": "inhibition", "setting": "[6]", "result": "< 50", "unit": "%"},
      {"measurement": "inhibition", "setting": "[7]", "result": "< 50", "unit": "%"},
      {"measurement": "inhibition", "setting": "[8]", "result": "< 50", "unit": "%"},
      {"measurement": "inhibition", "setting": "[9]", "result": "< 50", "unit": "%"}
    ]}
  ]
}
